Oligonucleotides are written 5' to 3', each unit as a sugar letter and its base; * is a phosphorothioate linkage, no mark a phosphodiester; rarer units and linkages stand in square brackets, end groups in braces. Plain capitals give the bases only. d = 2'-deoxy (DNA); r = 2'-OH (RNA)
What follows are substances tested against P2RX3 (assay: reporter assay of Huesken 2005). Details: siRNA.
Also: test concentration or dose not given here.

Q: How did the normalised inhibition (eCFP-eYFP dual reporter) turn out when “sense rCrUrUrUrArCrUrUrCrUrGrUrGrGrGrArGrUrGdTdT / antisense rCrArCrUrCrCrCrArCrArGrArArGrUrArArArGdGdC” was run?
A: 67.7%

Q: For “sense rGrCrUrCrCrGrGrArCrUrCrUrArCrGrCrCrArAdTdT / antisense rUrUrGrGrCrGrUrArGrArGrUrCrCrGrGrArGrCdCdC”, which normalised inhibition (eCFP-eYFP dual reporter) is on record?
A: 87.3%

Q: How did the normalised inhibition (eCFP-eYFP dual reporter) turn out when “sense rGrGrGrCrArUrUrArArGrArUrCrGrGrCrUrGrGdTdT / antisense rCrCrArGrCrCrGrArUrCrUrUrArArUrGrCrCrCdAdG” was run?
A: 59.7%

Q: How did the normalised inhibition (eCFP-eYFP dual reporter) turn out when “sense rUrGrArCrArGrCrCrArGrGrGrArCrArUrGrArAdTdT / antisense rUrUrCrArUrGrUrCrCrCrUrGrGrCrUrGrUrCrAdGdG” was run?
A: 90.5%

Q: “sense rCrUrGrArArArArUrCrArGrArUrGrCrArArGrGdTdT / antisense rCrCrUrUrGrCrArUrCrUrGrArUrUrUrUrCrArGdTdA” was tested. Which normalised inhibition (eCFP-eYFP dual reporter) did it give?
A: 85.5%

Q: For “sense rCrArUrCrArArCrCrGrArGrUrArGrUrUrCrArGdTdT / antisense rCrUrGrArArCrUrArCrUrCrGrGrUrUrGrArUrGdAdT”, which normalised inhibition (eCFP-eYFP dual reporter) is on record?
A: 74.7%

Q: Which normalised inhibition (eCFP-eYFP dual reporter) does the source give for “sense rCrUrGrArUrUrArCrGrUrGrArCrGrCrCrArCrCdTdT / antisense rGrGrUrGrGrCrGrUrCrArCrGrUrArArUrCrArGdAdC” here?
A: 50%

Q: Which normalised inhibition (eCFP-eYFP dual reporter) does the source give for “sense rGrGrCrCrGrCrUrGrCrGrUrGrArArCrUrArCrAdTdT / antisense rUrGrUrArGrUrUrCrArCrGrCrArGrCrGrGrCrCdAdG” here?
A: 72.3%

Q: For “sense rArCrCrUrGrUrGrArGrArUrCrCrArGrGrGrCrUdTdT / antisense rArGrCrCrCrUrGrGrArUrCrUrCrArCrArGrGrUdCdC”, which normalised inhibition (eCFP-eYFP dual reporter) is on record?
A: 50.2%

Q: “sense rUrArArCrCrArArGrGrUrGrArArGrGrGrCrUrCdTdT / antisense rGrArGrCrCrCrUrUrCrArCrCrUrUrGrGrUrUrAdCdC” was tested. Which normalised inhibition (eCFP-eYFP dual reporter) did it give?
A: 16.2%

Q: How did the normalised inhibition (eCFP-eYFP dual reporter) turn out when “sense rArGrUrCrGrGrUrGrGrUrUrGrUrGrArArGrArGdTdT / antisense rCrUrCrUrUrCrArCrArArCrCrArCrCrGrArCrUdTdG” was run?
A: 64.9%

Q: Which normalised inhibition (eCFP-eYFP dual reporter) does the source give for “sense rCrGrGrCrUrCrGrArCrArGrCrGrUrUrUrCrUrGdTdT / antisense rCrArGrArArArCrGrCrUrGrUrCrGrArGrCrCrGdGdG” here?
A: 86%

Q: With “sense rUrCrArCrUrArUrUrUrUrCrArUrCrArArGrArAdTdT / antisense rUrUrCrUrUrGrArUrGrArArArArUrArGrUrGrAdAdG” as the substance, how does the normalised inhibition (eCFP-eYFP dual reporter) read?
A: 79.6%

Q: How did the normalised inhibition (eCFP-eYFP dual reporter) turn out when “sense rArGrArCrUrArCrGrCrUrGrArArArArUrCrGrCdTdT / antisense rGrCrGrArUrUrUrUrCrArGrCrGrUrArGrUrCrUdCdA” was run?
A: 77.1%

Q: With “sense rArArCrCrGrArGrUrArGrUrUrCrArGrCrUrUrCdTdT / antisense rGrArArGrCrUrGrArArCrUrArCrUrCrGrGrUrUdGdA” as the substance, how does the normalised inhibition (eCFP-eYFP dual reporter) read?
A: 62%

Q: “sense rGrGrCrCrGrArCrCrArGrUrArCrArArArGrCrCdTdT / antisense rGrGrCrUrUrUrGrUrArCrUrGrGrUrCrGrGrCrCdCdC” was tested. Which normalised inhibition (eCFP-eYFP dual reporter) did it give?
A: 68%

Q: How did the normalised inhibition (eCFP-eYFP dual reporter) turn out when “sense rGrCrGrGrArGrArArGrCrArGrUrCrCrArCrCrGdTdT / antisense rCrGrGrUrGrGrArCrUrGrCrUrUrCrUrCrCrGrCdTdG” was run?
A: 81.8%

Q: How did the normalised inhibition (eCFP-eYFP dual reporter) turn out when “sense rArCrCrCrGrGrCrUrCrGrArCrArGrCrGrUrUrUdTdT / antisense rArArArCrGrCrUrGrUrCrGrArGrCrCrGrGrGrUdGdA” was run?
A: 94.1%

Q: For “sense rArCrUrCrCrUrUrCrArCrCrCrGrGrCrUrCrGrAdTdT / antisense rUrCrGrArGrCrCrGrGrGrUrGrArArGrGrArGrUdAdT”, which normalised inhibition (eCFP-eYFP dual reporter) is on record?
A: 80.2%

Q: How did the normalised inhibition (eCFP-eYFP dual reporter) turn out when “sense rArUrCrArArGrArArCrArGrCrArUrCrCrGrUrUdTdT / antisense rArArCrGrGrArUrGrCrUrGrUrUrCrUrUrGrArUdGdA” was run?
A: 70.6%

Q: How did the normalised inhibition (eCFP-eYFP dual reporter) turn out when “sense rGrGrArArArCrGrCrCrCrArUrCrArUrGrArUrGdTdT / antisense rCrArUrCrArUrGrArUrGrGrGrCrGrUrUrUrCrCdAdC” was run?
A: 74.8%

Q: For “sense rCrUrUrCrCrCrArArCrCrUrGrArCrArGrCrCrAdTdT / antisense rUrGrGrCrUrGrUrCrArGrGrUrUrGrGrGrArArGdGdA”, which normalised inhibition (eCFP-eYFP dual reporter) is on record?
A: 66.3%

Q: How did the normalised inhibition (eCFP-eYFP dual reporter) turn out when “sense rCrCrArCrCrUrCrArGrGrGrCrArCrCrUrCrGrGdTdT / antisense rCrCrGrArGrGrUrGrCrCrCrUrGrArGrGrUrGrGdCdG” was run?
A: 70.2%

Q: For “sense rUrUrGrUrUrArCrUrGrArArArArUrCrArGrArUdTdT / antisense rArUrCrUrGrArUrUrUrUrCrArGrUrArArCrArAdTdC”, which normalised inhibition (eCFP-eYFP dual reporter) is on record?
A: 54.1%

Q: For “sense rCrUrGrGrArCrCrArUrCrGrGrGrArUrCrArUrCdTdT / antisense rGrArUrGrArUrCrCrCrGrArUrGrGrUrCrCrArGdCdT”, which normalised inhibition (eCFP-eYFP dual reporter) is on record?
A: 60.7%

Q: How did the normalised inhibition (eCFP-eYFP dual reporter) turn out when “sense rCrCrUrGrArCrArGrCrCrArGrGrGrArCrArUrGdTdT / antisense rCrArUrGrUrCrCrCrUrGrGrCrUrGrUrCrArGrGdTdT” was run?
A: 33.4%

Q: How did the normalised inhibition (eCFP-eYFP dual reporter) turn out when “sense rCrArUrCrArUrCrCrCrCrArCrCrArUrCrArUrCdTdT / antisense rGrArUrGrArUrGrGrUrGrGrGrGrArUrGrArUrGdTdT” was run?
A: 38.5%

Q: How did the normalised inhibition (eCFP-eYFP dual reporter) turn out when “sense rUrGrGrUrGrCrCrCrCrArCrGrGrArGrGrUrGrGdTdT / antisense rCrCrArCrCrUrCrCrGrUrGrGrGrGrCrArCrCrAdGdC” was run?
A: 13.5%

Q: Which normalised inhibition (eCFP-eYFP dual reporter) does the source give for “sense rGrCrGrGrGrUrArGrGrGrGrArCrGrUrGrGrUrCdTdT / antisense rGrArCrCrArCrGrUrCrCrCrCrUrArCrCrCrGrCdAdA” here?
A: 37.2%

Q: “sense rUrUrCrUrGrCrCrCrArGrArGrArGrUrGrArGrGdTdT / antisense rCrCrUrCrArCrUrCrUrCrUrGrGrGrCrArGrArAdTdC” was tested. Which normalised inhibition (eCFP-eYFP dual reporter) did it give?
A: 44.3%

Q: Which normalised inhibition (eCFP-eYFP dual reporter) does the source give for “sense rArUrGrUrGrUrCrUrGrArUrUrArCrGrUrGrArCdTdT / antisense rGrUrCrArCrGrUrArArUrCrArGrArCrArCrArUdCdC” here?
A: 33.9%

Q: For “sense rArGrUrArCrArArArGrCrCrArArGrArArGrUrUdTdT / antisense rArArCrUrUrCrUrUrGrGrCrUrUrUrGrUrArCrUdGdG”, which normalised inhibition (eCFP-eYFP dual reporter) is on record?
A: 99.5%

Q: Which normalised inhibition (eCFP-eYFP dual reporter) does the source give for “sense rGrGrUrGrArArUrGrArGrArCrUrArCrGrCrUrGdTdT / antisense rCrArGrCrGrUrArGrUrCrUrCrArUrUrCrArCrCdTdC” here?
A: 87.3%

Q: For “sense rGrArCrUrUrGrGrArCrArArGrGrCrCrUrGrGrGdTdT / antisense rCrCrCrArGrGrCrCrUrUrGrUrCrCrArArGrUrCdGdC”, which normalised inhibition (eCFP-eYFP dual reporter) is on record?
A: 93%

Q: How did the normalised inhibition (eCFP-eYFP dual reporter) turn out when “sense rUrUrCrArGrCrUrUrCrUrGrArUrCrArUrCrUrCdTdT / antisense rGrArGrArUrGrArUrCrArGrArArGrCrUrGrArAdCdT” was run?
A: 46.8%

Q: For “sense rGrArGrArArArArGrCrArGrCrGrUrGrUrCrCrCdTdT / antisense rGrGrGrArCrArCrGrCrUrGrCrUrUrUrUrCrUrCdAdG”, which normalised inhibition (eCFP-eYFP dual reporter) is on record?
A: 68.3%

Q: With “sense rCrGrCrArCrCrCrUrCrCrUrGrArArGrGrCrUrUdTdT / antisense rArArGrCrCrUrUrCrArGrGrArGrGrGrUrGrCrGdGdT” as the substance, how does the normalised inhibition (eCFP-eYFP dual reporter) read?
A: 67.9%

Q: How did the normalised inhibition (eCFP-eYFP dual reporter) turn out when “sense rUrGrUrCrUrGrArUrUrArCrGrUrGrArCrGrCrCdTdT / antisense rGrGrCrGrUrCrArCrGrUrArArUrCrArGrArCrAdCdA” was run?
A: 43.1%

Q: For “sense rGrCrArCrCrUrCrGrGrUrCrUrUrUrGrUrCrArUdTdT / antisense rArUrGrArCrArArArGrArCrCrGrArGrGrUrGrCdCdC”, which normalised inhibition (eCFP-eYFP dual reporter) is on record?
A: 85.9%

Q: “sense rArUrUrGrUrUrArCrUrGrArArArArUrCrArGrAdTdT / antisense rUrCrUrGrArUrUrUrUrCrArGrUrArArCrArArUdCdA” was tested. Which normalised inhibition (eCFP-eYFP dual reporter) did it give?
A: 74.6%

Q: How did the normalised inhibition (eCFP-eYFP dual reporter) turn out when “sense rUrCrGrGrCrUrGrGrGrUrGrUrGrCrGrArCrUrUdTdT / antisense rArArGrUrCrGrCrArCrArCrCrCrArGrCrCrGrAdTdC” was run?
A: 77.1%

Q: “sense rArArUrCrArGrArUrGrCrArArGrGrArUrUrCrUdTdT / antisense rArGrArArUrCrCrUrUrGrCrArUrCrUrGrArUrUdTdT” was tested. Which normalised inhibition (eCFP-eYFP dual reporter) did it give?
A: 79.2%

Q: With “sense rArCrGrCrCrArArCrArGrArGrUrCrArUrGrGrAdTdT / antisense rUrCrCrArUrGrArCrUrCrUrGrUrUrGrGrCrGrUdAdG” as the substance, how does the normalised inhibition (eCFP-eYFP dual reporter) read?
A: 89.2%

Q: “sense rUrUrArArGrArUrCrGrGrCrUrGrGrGrUrGrUrGdTdT / antisense rCrArCrArCrCrCrArGrCrCrGrArUrCrUrUrArAdTdG” was tested. Which normalised inhibition (eCFP-eYFP dual reporter) did it give?
A: 55.4%

Q: With “sense rCrGrUrGrArArCrUrArCrArGrCrUrCrUrGrUrGdTdT / antisense rCrArCrArGrArGrCrUrGrUrArGrUrUrCrArCrGdCdA” as the substance, how does the normalised inhibition (eCFP-eYFP dual reporter) read?
A: 42%

Q: With “sense rUrCrCrUrGrCrUrCrArArCrUrUrCrCrUrCrArAdTdT / antisense rUrUrGrArGrGrArArGrUrUrGrArGrCrArGrGrAdTdG” as the substance, how does the normalised inhibition (eCFP-eYFP dual reporter) read?
A: 90.3%

Q: “sense rUrGrCrCrGrCrUrUrCrCrArCrCrCrGrGrArCrAdTdT / antisense rUrGrUrCrCrGrGrGrUrGrGrArArGrCrGrGrCrAdGdG” was tested. Which normalised inhibition (eCFP-eYFP dual reporter) did it give?
A: 93.7%

Q: “sense rUrUrUrGrCrCrArArArCrUrGrGrCrGrCrGrCrAdTdT / antisense rUrGrCrGrCrGrCrCrArGrUrUrUrGrGrCrArArAdAdT” was tested. Which normalised inhibition (eCFP-eYFP dual reporter) did it give?
A: 37.3%

Q: With “sense rUrCrUrUrGrCrGrGrGrUrArGrGrGrGrArCrGrUdTdT / antisense rArCrGrUrCrCrCrCrUrArCrCrCrGrCrArArGrAdTdG” as the substance, how does the normalised inhibition (eCFP-eYFP dual reporter) read?
A: 75.9%

Q: Which normalised inhibition (eCFP-eYFP dual reporter) does the source give for “sense rArGrUrUrCrArGrCrUrUrCrUrGrArUrCrArUrCdTdT / antisense rGrArUrGrArUrCrArGrArArGrCrUrGrArArCrUdAdC” here?
A: 72.3%

Q: How did the normalised inhibition (eCFP-eYFP dual reporter) turn out when “sense rArCrGrCrCrArCrCrUrCrArGrGrGrCrArCrCrUdTdT / antisense rArGrGrUrGrCrCrCrUrGrArGrGrUrGrGrCrGrUdCdA” was run?
A: 8.6%

Q: With “sense rArCrArGrCrUrCrUrGrUrGrCrUrCrCrGrGrArCdTdT / antisense rGrUrCrCrGrGrArGrCrArCrArGrArGrCrUrGrUdAdG” as the substance, how does the normalised inhibition (eCFP-eYFP dual reporter) read?
A: 59.2%

Source: the OligoGym collection
